Laboratory results: ChEMBL document CHEMBL4622872, “Discovery of DS-1971a, a Potent, Selective NaV1.7 Inhibitor” (J Med Chem, 2020)
≈ marks a conversion by molar mass, not a printed value.

Key:
[1] = Distribution coefficient, log D of the compound in 1-octanol and PBS buffer at pH 7.4 measured after 30 mins by LC-MS analysis; type: physicochemical; conditions: 1-octanol/PBS buffer
[2] = Aqueous thermodynamic solubility of the compound at pH 6.8 measured after 4 hrs by UV-HPLC analysis; type: physicochemical; conditions: buffer, pH 6.8; read-out: Therm_solubility
[3] = Stability of the compound in mouse liver microsomes assessed as parent compound remaining measured after 0.5 hrs; type: ADME, Microsome; conditions: mouse liver microsomes, read-out: Stability

Row | Structure (SMILES) | logD at 0.5 h [1] | solubility thermodynamic at 4 h [2] [µM] | remaining at 0.5 h [3] [%]
1 | Cn1nccc1[C@H]1CCCC[C@@H]1Oc1cc(F)c(S(=O)(=O)Nc2ncns2)cc1F (racemic) | 0.7 | > 2000 | 75
2 | Cn1nccc1[C@H]1CCC[C@@H]1Oc1cc(F)c(S(=O)(=O)Nc2ccncn2)cc1F (racemic) | 0.3 | 740 (≈ 322 µg/mL) | 100
3 | Cn1nccc1[C@H]1CCCCC[C@@H]1Oc1cc(F)c(S(=O)(=O)Nc2ccncn2)c(F)c1 (racemic) | 0.6 | 1040 (≈ 482 µg/mL) | 97
4 | Cn1nccc1[C@H]1CCC[C@@H]1Oc1cc(F)c(S(=O)(=O)Nc2ccncn2)c(F)c1 (racemic) | 0.1 | 1800 (≈ 784 µg/mL) | 80
